# Test results reported in US7371780B2, “Use of calphostin C to treat drug-resistant tumor cells” (priority 2003, dated 2008).
# Columns and labels:
# [1] = test system: caspase-8, PARP and cytochrome C in MCF-7 cells; test: Immunoblotting of apoptosis markers, MCF-7; type: cell-based, human
# Protocol: For preparation of mitochondrial and cytoplasmic cellular fractions, MCF-7, MCF-7TAX, and MCF-7DOX cells were grown in a monolayer to 70-90% confluence on 10 cm tissue culture plates. Twenty-four hours prior to extraction, the cells were treated with 50 nM light-activated calphostin C as described above. After this treatment, the cells were trypsinized, centrifuged at 1000 rpm in a Beckman GP centrifuge and washed with PBS. To the resulting cell pellet, 1 ml of ice-cold homogenization (HM) buffer was added. This buffer consisted of 85.55 g sucrose, 1.406 g MOPS, 0.292 g EDTA, and 1 ml ethanol per liter of solution, with a final pH of 7.2. Prior to use, 0.2 ml of 0.1 M PMSF, 1 Complete™ protease inhibitor tablet (Roche Diagnostics, Laval, QC), and 20 μl of 1 M DTT was added for 100 ml of HM buffer. Cells were then lysed 10 times by homogenization in a 2 ml dounce homogenizer. Nuclei in the lysate were then pelleted by centrifugation in a microfuge tube at 70 g for 10 minutes at 4° C. and the supernatant carefully removed. The supernatant was clarified by centrifugation at 1950 g for 10 minutes at 4° C. and the pellet (containing mitochondria) was resuspended in 50 μl of HM buffer. The remaining clarified supernatant was deemed the cytoplasmic fraction. […]
# [2] = mice, cited from earlier work
# MCF-7DOX cells = test: Drug uptake, MCF-7DOX; type: cell-based, human
# Protocol: FIG. 5 illustrates the effect of calphostin C (Cal-C) on drug uptake in MCF-7 (square symbols), MCF-7TAX (diamond symbols) and MCF-7DOX (triangular symbols) cells. After one-day growth, the cells were left untreated (closed symbols) or treated with 100 nM calphostin C for 2 h with light activation (open symbols). Cells were then washed and the medium replaced with medium containing 2 μM of doxorubicin (A) or [^3H]-paclitaxel (B). The cells were then trypsinized and drug accumulation measured by flow cytometry (A) or liquid scintillation counting (B) at indicated time points. The figures are representative of three independent experiments.
# [3] = test system: mouse B16BL6 melanoma cells; test: Death and cytoplasmic vacuolization, B16BL6; type: cell-based; details: data not shown
# MCF-7 cells = test: Flow cytometric sub-G1 DNA content, MCF-7; type: cell-based, human; details: 100 nM calphostin C, 2 h light
# Protocol: For flow cytometric analysis, cells at about 50% to 60% confluence were released from their flasks by trypsin treatment and washed with PBS. After centrifugation at 1000 rpm for 5 min, cells were then fixed by resuspension in 75% ethanol for 2 hours, collected by centrifugation, and resuspended in PI staining solution (see above) for 1 h. For each sample, approximately 2×10^4 cells were analyzed using a Beckman Coulter Epics® Elite flow cytometer. Fluorescence intensity upon stimulation with an argon-ion laser at 488 nm was measured using the PMT4 channel (625DL filter) and plotted against cell number. The percentage of cells with a sub-G1 DNA content was determined by the flow cytometer, adjusting the gates such that only cells with a fluorescence lower than the peak for untreated cells in G1 are counted (see FIG. 4).
smiles,measurement,setting,value
COc1c(C[C@@H](C)OC(=O)Oc2ccc(O)cc2)c2c3c(C[C@@H](C)OC(=O)c4ccccc4)c(OC)c(=O)c4c(O)cc(OC)c(c5c(OC)cc(O)c(c1=O)c52)c43 [calphostin C],caspase-8 and PARP cleavage (protein levels),"[1]; light-activated calphostin C, whole cell extracts",did not result in any change
same,release of cytochrome C from mitochondria,[1]; mitochondrial and cytoplasmic fractions,no clear evidence for the release of cytochrome C
same,clearance rate t1/2,[2]; 40 mg/kg,1.52 h
same,plasma concentration reached without significant cytotoxicity,[2],2900 nM
same,effect on paclitaxel uptake,MCF-7DOX cells; 100 nM calphostin C,little effect
same,effect on doxorubicin uptake,"MCF-7DOX cells; 100 nM calphostin C 2 h with light, then 2 μM doxorubicin",little ability to re-establish doxorubicin uptake
same,induction of death and cytoplasmic vacuolization,[3],induce both death and cytoplasmic vacuolization
same,time of strong increase in percentage of sub-G1 cells after treatment,MCF-7 cells,8 h
